Values of other authors as cited in patent US9376461B2, “Non-enzymatic synthesis of O-acetyl-ADP-ribose and analogues thereof” (GlaxoSmithKline LLC, priority 2011, dated 2016).

Tested on: starfish oocyte maturation
Conditions: infusion (microinjection) of OAADPR, presumably as the mixture of 2′ and 3′ isomers

In the case of 2′- and 3′-O-Acetyl-ADP-ribose [OAADPR], the “effect on starfish oocyte maturation” value is listed as “delayed or halted”.
